# Like-named read-outs stand apart in the source and are kept apart here.
# Legend:
# [1] = in MeOH; cited from earlier work
# [2] = in EtOH; cited from earlier work
# [3] = in EtOH; cited from earlier work; remark: listed apart in the source
# [4] = biological target: T1, endogenous OTR (oxytocin receptor) in mammary glands (Mus musculus, UniProt P97926); assay: In vivo fluorescence biodistribution study (small animal fluorescence imaging); details: lactating mice, 7.5 nmol i.v., imaged 30 min after
# T1 construct: target-specific imaging of the naturally expressed receptor in living mice; from tissue; host or cells: living lactating Swiss mice (mammary glands), in vivo imaging
# T1 sequence (P97926 1-388): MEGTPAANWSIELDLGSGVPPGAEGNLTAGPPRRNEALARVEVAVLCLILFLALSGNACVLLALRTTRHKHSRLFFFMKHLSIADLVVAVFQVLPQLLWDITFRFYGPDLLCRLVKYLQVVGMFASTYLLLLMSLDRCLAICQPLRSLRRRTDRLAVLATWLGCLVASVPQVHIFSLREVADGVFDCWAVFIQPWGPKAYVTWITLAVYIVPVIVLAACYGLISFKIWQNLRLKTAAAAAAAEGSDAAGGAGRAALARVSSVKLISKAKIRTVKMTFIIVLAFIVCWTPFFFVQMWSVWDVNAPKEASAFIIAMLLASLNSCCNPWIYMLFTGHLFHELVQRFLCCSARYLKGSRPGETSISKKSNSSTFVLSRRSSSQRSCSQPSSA
# Description: Representative images of at least 3 biological replicates.
# Twelve-week-old pregnant female Swiss mice were purchased from Janvier Laboratories (France). Animals were maintained under controlled environmental conditions (20±2° C.) with a relative humidity (50±10%) and a 12 hour light/dark cycle in Individually ventilated cages (GM500, Techniplast) with bedding made from spruce wood chips (Safe, villeAugy, France) and enriched with nestlets. Food (autoclavable diet, D04, Safe, France) and tap water were available ad libitum. Animal experimentation was conducted with the approval of the French ministry of agriculture and the Ethics local committee for animal experimentation of the Strasbourg University (CREMEAS) under the authorization number #11974-2017103010101372.
# Animal fluorescence imaging was performed using a luminograph (NightOwl, Berthold Technologies). Lactating mice 11 days after delivery were anesthetized intraperitoneally (Ketamine 150 mg/kg, xylazine 10 mg/kg). Fluorescent compounds (100 μL containing 7.5 nmol in 0.9% NaCl) with or without non-fluorescent carbetocin (100 μL containing 450 nmol in 0.9% NaCl) were administered intravenously (tail vein). […] Mice were imaged using a halogen lamp (75 W, 340-750 nm) and emission of the dyes was recorded using a 630/700 nm filter. […]
# [5] = system: GFP-fused oxytocin receptor (GFP-OTR); assay: Fluorescence confocal microscopy on living HEK293 cells expressing GFP-OTR, no-wash conditions; format: cell-based; details: 500 nM
# Description: FIG. 1: Confocal microscopy studies of dCy5.5-PEG-CBT and mCy5.5-PEG-CBT on living HEK 293 cells expressing OTR-GFP fusion under no-wash conditions. Cells were incubated with the ligands for 5 min at room temperature prior to the imaging.
# HEK293 cells expressing the GFP-fused oxytocin receptor (GFP-OTR) and wild-type HEK293 cells were cultured in Eagle's minimal essential medium (MEM, Invitrogen 21090) with 10% of heat-inactivated fetal bovine serum, 100 U/mL of penicillin, 100 µg/mL of streptomycin, 2 mM of glutamine and 50 µg/mL of hygromycin B for GFP-OTR cells at 37° C. in a humidified 5% CO2 atmosphere. 70-80% cell confluence was maintained by removal of a portion of the culture and replacement with fresh medium twice a week. For confocal microscopy studies, cells were seeded onto 35 mm ibiTreat Ibidi Polymer Coverslip at a density of 100 000 cells/Ibidi 24 h before microscopy.
# […] For competition experiments, a mixture of 10 nM of fluorescent ligands and 2 μM of carbetocin was used. Fluorescence confocal microscopy experiments were performed on a Leica TCS SPE-II microscope with a HXC PL APO 63×/1.40 OIL CS objective. GFP excitation was performed with a 488 nm 10 mW laser, the excitation of Cy5.5 was performed with a 635 nm 18 mW laser. Image treatment was proceeded using ImageJ (Wayne Rasband, National Institute of Mental Health, Bethesda).
compound,measurement,setting,value
CCCCCCCCCCCCCCCCCCN1/C(=C/C=C/C=C/C2=[N+](CCCCCCCCCCCCCCCCCC)c3ccccc3C2(C)C)C(C)(C)c2ccccc21.[O-][Cl+3]([O-])([O-])[O-] [DID],Fluorescence quantum yield (QY) of the reference,[1],33%
Rhodamine 800,Fluorescence quantum yield (QY) of the reference,[2],25%
same,Fluorescence quantum yield (QY) of the reference,[3],25%
CC[C@H](C)[C@@H]1NC(=O)[C@H](Cc2ccc(OC)cc2)NC(=O)CCCSC[C@@H](C(=O)N2CCC[C@H]2C(=O)N[C@@H](CCCCn2cc(CNC(=O)CCNC(=O)CCC(=O)NCCOCCOCCNC(=O)CCC(=O)NCCOCCOCCNC(=O)CCC(=O)NCCOCCOCCNC(=O)CCCCCN3/C(=C/C=C/C=C/C4=[N+](CCOCCOCCOCCOCCOCCOCCOCCOC)c5ccc6ccccc6c5C4(C)C)C(C)(C)c4c3ccc3ccccc43)nn2)C(=O)NCC(N)=O)NC(=O)[C@H](CC(N)=O)NC(=O)[C@H](CCC(N)=O)NC1=O.O=C([O-])C(F)(F)F [mCy5.5-PEG-CBT],Off-target fluorescence signal,[4],strong off-target fluorescence
same,Image background from unbound probe,[5],strong background

# Reference: patent publication US12643855B2, “Fluorogenic dimer compound, useful as a probe for detection of endogenous receptors” (UNIVERSITE DE STRASBOURG, priority 2020, dated 2026)
